# pEC50, pIC50: −log10 of the molar value. Like-named read-outs stand apart in the source and are kept apart here.
# Tests used:
# [1] = tested on: phospho-AKT in 786-O cells (PI3Kβ); assay: PI3Kβ selective assay, phospho-AKT in 786-O cells; format: cell-based; conditions: Homo sapiens, 786-0; ranges between 1 μM and 10 μM and greater than 10 μM; read-out: IC50 for phospho-AKT, 786-O cell model
# Text: A compound's ability in selectively inhibiting PI3Kβ can be assessed using 786-O cells, i.e., human kidney carcinoma cell line. Briefly, 786-O cells, in which PI3Kβ is constitutively active, can be treated with test compounds. Test compounds' ability to inhibit AKT phosphorylation in 786-O cells, therefore, is indicative of selective inhibition of PI3β. Thus, by monitoring the reduction of phospho-AKT in 786-O cells (using for example, phospho-AKT antibodies), a compound's potential efficacy in selectively inhibiting PI3Kβ can be assessed.
# Certain compounds provided herein (e.g., Compounds 5, 49, 138, 326, 328, 354, 359, 389, and 391) were tested in 786-O cell model using procedures as described above.
# PI3Kα = biological target: T1, PI3Kα (Homo sapiens, UniProt P42336); assay: PI3-Kinase HTRF assay, PI3Kα; format: biochemical; conditions: 10 μM ATP, PIP2 at 10 μM, read-out: IC50 P13Kα
# T1 construct: purchased Millipore Corporation 14-602-K
# In short: (§1)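 Purified recombinant human PI3Kα, β, γ or δ (0.25-0.3 μg/ml) preincubated 15 min at room temperature with compound (2% DMSO) and 10 μM PIP2, then reacted 1 h with 10 μM ATP. PIP3 product detected by competitive HTRF (GST-PH domain/biotin-PIP3); IC50 from 12-point curves, 20 μM to 0.1 nM, by nonlinear regression.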
# [2] = tested on: phospho-AKT in SKOV-3 cells (PI3Kα); assay: PI3Kα selective assay, phospho-AKT in SKOV-3 cells; format: cell-based; conditions: Homo sapiens, SK-OV-3; ranges between 1 μM and 10 μM and greater than 10 μM; read-out: IC50 for phospho-AKT, SKOV-3 cell model
# Text: A compound's ability in selectively inhibiting PI3Kα can be assessed using SKOV-3 cells, i.e., human ovarian carcinoma cell line. Briefly, SKOV-3 cells, in which mutant PI3Kα is constitutively active, can be treated with test compounds. Test compounds' ability to inhibit AKT phosphorylation in SKOV-3 cells, therefore, is indicative of selective inhibition of PI3Kα. Thus, by monitoring the reduction of phospho-AKT in SKOV-3 cells (using for example, phospho-AKT antibodies), a compound's potential efficacy in selectively inhibiting PI3Kα can be assessed.
# Certain compounds provided herein (e.g., Compounds 5, 49, 138, 326, 328, 354, 359, 389, and 391) were tested in SKOV-3 cell model using procedures as described above.
# Balb/c splenic B cells = assay: B cell activation and proliferation assay; format: cell-based; conditions: Mus musculus, column bins 1 μM to 100 nM (given as 100-1000) and Less than 100 nM, read-out: B cell proliferation EC50
# In short: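 Balb/c splenic B cells were isolated by Ficoll gradient and magnetic separation, plated at 50.000 cells/well in RPMI/10% FBS, and pre-incubated with compound for 30 min at 37° C (0.2% DMSO). Cells were stimulated for 72 h with a cocktail of 10 μg/ml LPS or 5 μg/ml anti-mouse IgM F(ab′)2 plus 2 ng/ml IL4. Alamar Blue fluorescence (560Ex/590Em) after 5 h gave IC50 or EC50.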
# [3] = tested on: phospho-AKT in RAW 264.7 cells (PI3Kγ); assay: PI3Kγ selective assay, phospho-AKT in RAW 264.7 cells; format: cell-based; conditions: Mus musculus, RAW264.7; stimulated with C5a; ranges less than 100 nM and between 100 nM and 1 μM (given as 100-1000); read-out: IC50 for phospho-AKT, RAW 264.7 cell model
# Text: A compound's ability in selectively inhibiting PI3Kγ can be assessed using RAW264.7 macrophages. Briefly, serum-starved PAW264.7 cells are stimulated with a known GPCR agonist C5a. (See, e.g., Camps et al., Nature Medicine (2005) 11(9): 936-943). Cells can be treated with test compounds prior to, simultaneously with, or subsequent to the stimulation by C5a. RAW 264.7 cells respond to the complement component fragment C5a through activation of the C5a receptor, and the C5a receptor activates macrophages and induces cell migration. Test compounds' ability to inhibit C5a-mediated AKT phosphorylation is indicative of selective inhibition of PI3Kγ. Thus, by monitoring the reduction of phospho-AKT in stimulated RAW 264.7 cells (using for example, phospho-AKT antibodies), a compound's potential efficacy in selectively inhibiting PI3Kγ can be assessed.
# [4] = tested on: phospho-AKT in RAJI cells (PI3Kδ); assay: PI3Kδ selective assay, phospho-AKT in RAJI cells; format: cell-based; conditions: RAJI cells stimulated with anti-human IgM; read-out: IC50 for phospho-AKT, RAJI cell model
# Text: A compound's ability in selectively inhibiting PI3Kδ can be assessed using RAJI cells, i.e., B lymphocyte cells derived from lymphoma patients. Briefly, serum-starved RAJI cells are stimulated with anti-human IgM, thereby causing signaling through the B-cell receptors, as described in, for example, He et al., Leukemia Research (2009) 33: 798-802. B-cell receptor signaling is important for the activation, differentiation, and survival of B cells and certain B-cell derived cancers. Reduction of phospho-AKT is indicative of compounds that may inhibit B-cell proliferation and function in certain diseases. By monitoring the reduction of phospho-AKT in stimulated RAJI cells (using for example, phospho-AKT antibodies), a compound's potential efficacy in selectively inhibiting PI3Kδ can be assessed.
# PI3Kγ = biological target: T2, PI3Kγ (Homo sapiens, UniProt P48736); assay: PI3-Kinase HTRF assay, PI3Kγ; format: biochemical; conditions: 10 μM ATP, PIP2 at 10 μM
# T2 construct: purchased Millipore Corporation 14-558-K
# Text: (§2) A PI3-Kinase HTRF® assay kit (cat No. 33-016) purchased from Millipore Corporation was used to screen compounds provided herein. This assay used specific, high affinity binding of the GRPI pleckstrin homology (PH) domain to PIP3, the product of a Class 1A or 1B PI3 Kinase acting on its physiological substrate PIP2. During the detection phase of the assay, a complex was generated between the GST-tagged PH domain and biotinylated short chain PIP3. The biotinylated PIP3 and the GST-tagged PH domain recruited fluorophores (Streptavidin-Allophycocyanin and Europium-labeled anti-GST respectively) to form the fluorescence resonance energy transfer (FRET) architecture, generating a stable time-resolved FRET signal. The FRET complex was disrupted in a competitive manner by non-biotinylated PIP3, a product formed in the PI3 Kinase assay.
# (§3) PI3 Kinase α, β, γ and δ activity was assayed using the PI3 Kinase HTRF® assay kit (catalogue No. 33-016) purchased from Millipore Corporation. Purified recombinant PI3Kα (catalogue No. 14-602-K), PI3Kβ (catalogue No. 14-603-K), PI3Kγ (catalogue No. 14-558-K) and PI3Kδ (catalogue No. 14-604-K) were obtained from Millipore Corporation. Purified recombinant PI3K enzyme was used to catalyze the phosphorylation of phosphatidylinositol 4,5-bisphosphate (PIP2 at 10 μM) to phosphatidylinositol 3,4,5-trisphosphate (PIP3) in the presence of 10 μM ATP. The assay was carried out in 384-well format and detected using a Perkin Elmer EnVision Xcite Multilabel Reader. Emission ratios were converted into percent inhibitions and imported into GraphPad Prism software. The concentration necessary to achieve inhibition of enzyme activity by 50% (IC50) was calculated using concentrations ranging from 20 μM to 0.1 nM (12-point curve). IC50 values were determined using a nonlinear regression model available in GraphPad Prism 5. […]
# PI3Kβ = biological target: T3, PI3Kβ (Homo sapiens, UniProt P42338); assay: PI3-Kinase HTRF assay, PI3Kβ; format: biochemical; conditions: bins Greater than 10 μM and Greater than 1 μM to 10 μM; 10 μM ATP, PIP2 at 10 μM
# T3 construct: purchased Millipore Corporation 14-603-K
# In short: as §1
# PI3Kδ = biological target: T4, PI3Kδ (Homo sapiens, UniProt O00329); assay: PI3-Kinase HTRF assay, PI3Kδ; format: biochemical; conditions: 10 μM ATP, PIP2 at 10 μM
# T4 construct: purchased Millipore Corporation 14-604-K
# Text: as §2, §3
# [5] = bins Greater than 10 μM and Greater than 1 μM to 10 μM
# [6] = column bins 1 μM to 100 nM (given as 100-1000) and Less than 100 nM
# T1 sequence (P42336 whole entry): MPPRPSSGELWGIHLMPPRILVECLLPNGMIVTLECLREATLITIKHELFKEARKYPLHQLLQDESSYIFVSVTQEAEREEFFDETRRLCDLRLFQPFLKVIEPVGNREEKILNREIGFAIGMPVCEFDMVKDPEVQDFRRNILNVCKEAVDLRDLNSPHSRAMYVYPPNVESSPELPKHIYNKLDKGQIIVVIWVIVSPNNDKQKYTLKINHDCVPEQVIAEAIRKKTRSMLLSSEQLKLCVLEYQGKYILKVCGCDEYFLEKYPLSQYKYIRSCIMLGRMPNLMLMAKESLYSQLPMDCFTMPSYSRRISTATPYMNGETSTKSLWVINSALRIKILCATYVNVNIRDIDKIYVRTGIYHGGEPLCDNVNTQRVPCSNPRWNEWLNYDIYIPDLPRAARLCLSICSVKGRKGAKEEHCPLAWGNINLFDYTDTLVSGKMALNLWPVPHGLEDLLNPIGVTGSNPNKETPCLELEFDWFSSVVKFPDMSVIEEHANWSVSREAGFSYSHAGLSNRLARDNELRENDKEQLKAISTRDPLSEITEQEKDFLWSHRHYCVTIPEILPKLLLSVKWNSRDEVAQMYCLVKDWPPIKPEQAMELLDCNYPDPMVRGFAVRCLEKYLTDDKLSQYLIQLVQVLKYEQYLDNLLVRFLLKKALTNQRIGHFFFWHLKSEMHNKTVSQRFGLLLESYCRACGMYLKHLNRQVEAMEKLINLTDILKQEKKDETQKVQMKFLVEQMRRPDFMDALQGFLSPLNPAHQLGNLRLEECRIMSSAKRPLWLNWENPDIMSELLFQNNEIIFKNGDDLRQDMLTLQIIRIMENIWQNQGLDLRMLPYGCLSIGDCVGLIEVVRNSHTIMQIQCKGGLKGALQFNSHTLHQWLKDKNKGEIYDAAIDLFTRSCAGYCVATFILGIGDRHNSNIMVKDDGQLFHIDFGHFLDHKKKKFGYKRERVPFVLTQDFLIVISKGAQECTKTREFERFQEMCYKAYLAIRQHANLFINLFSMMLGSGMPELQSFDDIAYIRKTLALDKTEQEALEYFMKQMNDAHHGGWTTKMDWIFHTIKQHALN
# T1 sequence (P27986 whole entry partner): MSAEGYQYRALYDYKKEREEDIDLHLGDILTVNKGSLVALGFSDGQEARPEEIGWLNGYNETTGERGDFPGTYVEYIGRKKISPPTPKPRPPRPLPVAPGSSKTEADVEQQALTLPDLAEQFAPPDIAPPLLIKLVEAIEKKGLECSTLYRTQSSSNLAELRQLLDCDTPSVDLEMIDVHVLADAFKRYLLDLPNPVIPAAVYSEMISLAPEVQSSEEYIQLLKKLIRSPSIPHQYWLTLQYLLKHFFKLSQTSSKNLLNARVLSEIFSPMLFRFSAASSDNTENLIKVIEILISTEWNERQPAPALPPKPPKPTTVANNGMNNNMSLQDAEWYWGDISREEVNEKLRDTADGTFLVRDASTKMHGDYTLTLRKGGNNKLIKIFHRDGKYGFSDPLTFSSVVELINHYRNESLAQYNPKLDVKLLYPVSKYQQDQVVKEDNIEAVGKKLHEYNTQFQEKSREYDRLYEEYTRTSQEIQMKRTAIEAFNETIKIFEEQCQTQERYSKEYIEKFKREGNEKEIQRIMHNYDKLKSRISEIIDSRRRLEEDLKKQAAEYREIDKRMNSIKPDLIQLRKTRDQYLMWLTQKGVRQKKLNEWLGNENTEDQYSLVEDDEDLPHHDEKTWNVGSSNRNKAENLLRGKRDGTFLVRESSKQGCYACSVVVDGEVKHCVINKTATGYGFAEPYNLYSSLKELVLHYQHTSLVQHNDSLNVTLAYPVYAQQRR
# T4 sequence (O00329 whole entry): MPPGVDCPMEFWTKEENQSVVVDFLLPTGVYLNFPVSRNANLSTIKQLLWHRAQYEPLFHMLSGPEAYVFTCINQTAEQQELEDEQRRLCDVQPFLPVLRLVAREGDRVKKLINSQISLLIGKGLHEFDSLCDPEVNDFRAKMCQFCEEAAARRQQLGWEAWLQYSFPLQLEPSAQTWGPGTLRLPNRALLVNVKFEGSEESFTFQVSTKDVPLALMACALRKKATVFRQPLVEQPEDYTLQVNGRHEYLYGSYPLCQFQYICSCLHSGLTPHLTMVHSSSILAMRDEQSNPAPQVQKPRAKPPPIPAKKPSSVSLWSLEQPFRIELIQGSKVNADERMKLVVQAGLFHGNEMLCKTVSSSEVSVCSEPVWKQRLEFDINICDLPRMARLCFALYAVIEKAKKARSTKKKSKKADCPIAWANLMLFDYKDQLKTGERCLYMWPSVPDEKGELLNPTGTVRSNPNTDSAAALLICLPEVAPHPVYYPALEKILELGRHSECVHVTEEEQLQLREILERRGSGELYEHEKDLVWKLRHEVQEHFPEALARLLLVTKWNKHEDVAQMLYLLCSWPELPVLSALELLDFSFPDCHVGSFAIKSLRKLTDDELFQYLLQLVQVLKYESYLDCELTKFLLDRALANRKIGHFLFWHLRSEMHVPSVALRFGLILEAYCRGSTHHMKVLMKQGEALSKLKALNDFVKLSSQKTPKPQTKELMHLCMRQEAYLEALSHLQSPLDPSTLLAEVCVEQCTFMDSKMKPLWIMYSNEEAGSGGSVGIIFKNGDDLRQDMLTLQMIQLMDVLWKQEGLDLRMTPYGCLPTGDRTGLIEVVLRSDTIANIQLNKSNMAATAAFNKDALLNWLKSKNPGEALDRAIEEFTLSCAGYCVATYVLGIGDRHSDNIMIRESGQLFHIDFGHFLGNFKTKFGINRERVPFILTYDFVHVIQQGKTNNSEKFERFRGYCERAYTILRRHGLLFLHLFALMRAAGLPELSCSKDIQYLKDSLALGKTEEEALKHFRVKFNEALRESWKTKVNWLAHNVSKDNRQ
# T4 sequence (P27986 whole entry partner): as the sequence (P27986 whole entry partner) above
# T3 sequence (P42338 whole entry): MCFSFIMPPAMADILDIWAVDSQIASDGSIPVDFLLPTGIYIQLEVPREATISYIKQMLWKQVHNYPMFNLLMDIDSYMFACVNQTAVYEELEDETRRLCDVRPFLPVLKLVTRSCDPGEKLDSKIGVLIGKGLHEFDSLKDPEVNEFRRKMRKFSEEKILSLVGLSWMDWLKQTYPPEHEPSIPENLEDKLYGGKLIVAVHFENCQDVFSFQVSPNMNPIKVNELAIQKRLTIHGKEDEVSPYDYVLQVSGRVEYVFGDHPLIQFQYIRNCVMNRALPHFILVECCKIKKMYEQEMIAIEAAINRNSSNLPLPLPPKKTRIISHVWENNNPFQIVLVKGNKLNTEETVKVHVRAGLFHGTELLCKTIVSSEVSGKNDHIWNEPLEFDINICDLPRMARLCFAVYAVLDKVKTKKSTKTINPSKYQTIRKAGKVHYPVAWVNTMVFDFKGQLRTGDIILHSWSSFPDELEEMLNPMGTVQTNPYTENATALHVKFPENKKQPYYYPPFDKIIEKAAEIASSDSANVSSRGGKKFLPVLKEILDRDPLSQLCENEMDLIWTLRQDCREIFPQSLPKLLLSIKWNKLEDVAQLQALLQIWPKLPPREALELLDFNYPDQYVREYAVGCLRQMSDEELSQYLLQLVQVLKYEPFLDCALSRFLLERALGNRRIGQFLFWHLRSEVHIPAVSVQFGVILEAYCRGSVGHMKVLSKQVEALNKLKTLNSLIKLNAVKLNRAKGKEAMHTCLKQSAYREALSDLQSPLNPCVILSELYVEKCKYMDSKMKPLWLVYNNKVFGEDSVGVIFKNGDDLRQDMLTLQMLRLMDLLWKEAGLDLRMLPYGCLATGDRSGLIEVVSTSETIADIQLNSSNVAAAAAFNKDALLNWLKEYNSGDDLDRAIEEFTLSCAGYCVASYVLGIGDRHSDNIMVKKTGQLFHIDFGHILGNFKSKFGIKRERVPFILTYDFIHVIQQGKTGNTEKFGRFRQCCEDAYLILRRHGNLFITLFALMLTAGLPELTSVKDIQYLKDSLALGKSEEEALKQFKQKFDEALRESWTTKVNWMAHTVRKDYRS
# T3 sequence (P27986 whole entry partner): as the sequence (P27986 whole entry partner) above
# T2 sequence (P48736 whole entry): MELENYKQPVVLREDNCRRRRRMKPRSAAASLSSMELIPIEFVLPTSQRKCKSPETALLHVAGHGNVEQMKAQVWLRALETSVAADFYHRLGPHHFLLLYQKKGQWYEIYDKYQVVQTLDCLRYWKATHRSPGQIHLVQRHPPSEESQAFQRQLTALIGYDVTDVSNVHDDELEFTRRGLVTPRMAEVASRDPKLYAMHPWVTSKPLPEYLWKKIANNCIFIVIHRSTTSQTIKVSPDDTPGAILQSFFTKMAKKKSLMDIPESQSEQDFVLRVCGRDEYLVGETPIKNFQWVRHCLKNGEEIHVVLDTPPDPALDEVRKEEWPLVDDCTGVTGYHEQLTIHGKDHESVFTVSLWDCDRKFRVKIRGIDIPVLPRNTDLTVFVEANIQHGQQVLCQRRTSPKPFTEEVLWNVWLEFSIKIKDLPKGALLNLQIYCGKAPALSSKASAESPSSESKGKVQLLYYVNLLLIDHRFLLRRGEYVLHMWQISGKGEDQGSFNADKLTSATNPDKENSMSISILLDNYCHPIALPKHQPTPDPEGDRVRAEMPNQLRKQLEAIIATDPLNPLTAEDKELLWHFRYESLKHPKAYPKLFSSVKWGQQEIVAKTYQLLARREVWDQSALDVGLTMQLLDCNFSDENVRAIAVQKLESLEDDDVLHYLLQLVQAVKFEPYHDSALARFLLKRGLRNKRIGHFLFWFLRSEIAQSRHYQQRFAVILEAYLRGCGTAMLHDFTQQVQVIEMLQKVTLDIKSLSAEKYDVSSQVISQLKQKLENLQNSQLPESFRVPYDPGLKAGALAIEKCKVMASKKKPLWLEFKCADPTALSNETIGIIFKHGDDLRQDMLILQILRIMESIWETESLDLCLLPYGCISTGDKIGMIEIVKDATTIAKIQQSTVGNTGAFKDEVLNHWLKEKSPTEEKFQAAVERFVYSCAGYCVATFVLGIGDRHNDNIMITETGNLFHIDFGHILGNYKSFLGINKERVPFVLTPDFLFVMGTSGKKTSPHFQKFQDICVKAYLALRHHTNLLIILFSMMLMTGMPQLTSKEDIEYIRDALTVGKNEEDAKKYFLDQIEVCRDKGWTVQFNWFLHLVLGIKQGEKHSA
SMILES,pIC50 (PI3Kγ; [6]),pIC50 (PI3Kβ),pIC50 (PI3Kδ; [6]),pIC50 (PI3Kγ; [5]),pIC50 (PI3Kδ; [5]),pEC50 (Balb/c splenic B cells),other results
"COc1ncc(-c2cccc3cc([C@H](C)Nc4nc(N)ncc4C#N)n(-c4ccccc4)c(=O)c23)cn1 [Compound 5, (S)-2-amino-4-((1-(8-(2-methoxypyrimidin-5-yl)-1-oxo-2-phenyl-1,2-dihydroisoquinolin-3-yl)ethyl)amino)pyrimidine-5-carbonitrile]",–,–,–,–,–,> 7.00,pIC50 [1]: < 5.00; pIC50 (PI3Kα; [5]): 5.00 to 6.00; pIC50 [2]: 5.00 to 6.00; pIC50 [3]: > 7.00; pIC50 [4]: > 7.00
CCc1ncc(-c2cccc3nc([C@H](C)Nc4nc(N)ncc4C#N)n(-c4ccccc4)c(=O)c23)cn1 [Compound 60],> 7.00,< 5.00,> 7.00,–,–,> 7.00,pIC50 (PI3Kα; [5]): < 5.00
"C[C@H](Nc1cc(Cl)ncn1)c1cc2cccc(Cl)c2c(=O)n1-c1ccccc1 [Compound 77, (S)-8-chloro-3-(1-(6-chloropyrimidin-4-ylamino)ethyl)-2-phenylisoquinolin-1(2H)-one]",–,–,–,5.00 to 6.00,5.00 to 6.00,–,–
COc1cc(-c2cccc3cc([C@H](C)Nc4nc(N)ncc4C(=O)N(C)CCO)n(-c4ccccc4)c(=O)c23)ccn1 [Compound 114],–,–,–,5.00 to 6.00,5.00 to 6.00,–,–
COc1cc(-c2cccc3cc([C@H](C)Nc4nc(N)ncc4C(=O)N4CCOCC4)n(-c4ccccc4)c(=O)c23)ccn1 [Compound 119],–,–,–,5.00 to 6.00,5.00 to 6.00,–,–
C[C@H](Nc1nc(N)ncc1C#N)c1cc2cccc(-c3cccc(N(C)S(C)(=O)=O)c3)c2c(=O)n1-c1ccccc1 [Compound 153],> 7.00,5.00 to 6.00,> 7.00,–,–,> 7.00,pIC50 (PI3Kα; [6]): 6.00 to 7.00
CC(=O)Nc1cnc(N)nc1N[C@@H](C)c1cc2cccc(Cl)c2c(=O)n1-c1ccccc1 [Compound 173],–,–,–,5.00 to 6.00,–,–,–
C[C@H](Nc1nc(N)ncc1NC(=O)c1ccccc1)c1cc2cccc(Cl)c2c(=O)n1-c1ccccc1 [Compound 175],–,–,–,5.00 to 6.00,5.00 to 6.00,–,–

# Second part, led by results:
pIC50 (PI3Kγ; [6]),pIC50 (PI3Kβ),pIC50 (PI3Kδ; [6]),pIC50 (PI3Kγ; [5]),pIC50 (PI3Kδ; [5]),SMILES,pEC50 (Balb/c splenic B cells),other results
> 7.00,5.00 to 6.00,> 7.00,–,–,CCOc1cncc(-c2cccc3cc([C@H](C)Nc4nc(N)ncc4C#N)n(-c4ccccc4)c(=O)c23)c1 [Compound 115],> 7.00,pIC50 (PI3Kα; [6]): 6.00 to 7.00
–,–,–,5.00 to 6.00,5.00 to 6.00,C[C@H](Nc1nc(N)ncc1C#N)c1cc2cccc(-c3ccn(C)c(=O)c3)c2c(=O)n1-c1ccccc1 [Compound 182],–,–

# Source: patent US8785470B2, “Heterocyclic compounds and uses thereof” (Infinity Pharmaceuticals, Inc., priority 2011, dated 2014)
